According to patent US10993985B2, “Methods of treating acute myeloid leukemia” (BioLineRx Ltd., priority 2016, dated 2021):
Positions of bridges follow the written chain, without caps; N, C: chain ends. Non-standard residues stand in square brackets, D forms with d. 2Nal = N[C@@H](Cc1ccc2ccccc2c1)C(=O)O; Cit = NC(=O)NCCC[C@H](N)C(=O)O

Assays:
[1] = system: blast cells in peripheral blood (PB) of AML patients; experiment: Phase 1/2 study: mobilization of blast cells to peripheral blood after BL-8040 in relapsed or refractory AML patients; assay type: in vivo, human
Description: In an open-label, single arm, phase 1/2 study, patients diagnosed with AML with relapsed or refractory disease received a once daily subcutaneous (SC) dose of BL-8040 as monotherapy on days 1-2 followed by the same dose of BL-8040 plus Ara-C (1.5 g/m2 for patients ≥60; 3 g/m2 for patients <60) on days 3-7. Six dose levels of BL-8040 (0.5-2.0 mg/kg) were tested in the dose escalation phase with 1.5 mg/kg selected for the expansion phase. Extensive pharmacodynamics (PD) parameters such as the extent of mobilization were assessed during the study. Clinical response to treatment was determined by BM biopsy on day 30.
Measuring Blast-Cell Density in Peripheral Blood (PB) and Bone Marrow (BM)
Bone marrow blast-cell counts were performed using procedures essentially as described by Lee et al. (Int. Jnl. Lab. Hem. 30: 349-364, 2008).
Peripheral blast-cell counts were performed using procedures essentially as described by O'Connor, B. H., A Color Atlas and Instructions Manual of Peripheral Cell Morphology, Lippincot Williams, 1984.
Clinical responses to […] treatment were determined according to the standards of the international working group for AML (Cheson et al., J. Clin. Oncol. 21: 4642-4649, 2003; Döhner et al., Blood 115: 453-474, 2010; and de Greef et al., British Journal of Hematology 128: 184-91, 2005), which are summarized in Table 1 below.

human AML xenografts = settings: subcutaneous injections; cited from earlier work
[2] = system: malignant cells of hematopoietic origin including AML; settings: cited from earlier work
HIV-1 (X4-HIV-1) = settings: through specific binding to CXCR4; cited from earlier work

Substance | ratio of PB blast cell density after treatment to initial density prior to treatment ([1]; day 2 following treatment with BL-8040, non-responsive patients (SD and PD)) | ratio of PB blast cell density after treatment to initial density prior to treatment ([1]; day 2 following treatment with BL-8040, responsive patients, CR, prior to cytarabine) | ratio of PB blast cell density after treatment to initial density prior to treatment ([1]; day 2 following treatment with BL-8040, responsive patients, CRi, prior to cytarabine) | ratio of PB blast cell density after treatment to initial density prior to treatment ([1]; day 3, 8 hr following day 3 injection (after initiation of cytarabine), non-responsive patients (SD and PD)) | ratio of PB blast cell density after treatment to initial density prior to treatment ([1]; day 3, 8 hr following day 3 injection (after initiation of cytarabine), responsive patients, CR) | ratio of PB blast cell density after treatment to initial density prior to treatment ([1]; day 3, 8 hr following day 3 injection (after initiation of cytarabine), responsive patients, CRi) | ratio of PB blast cell density after treatment to initial density prior to treatment ([1]; day 3 following initial treatment with BL-8040, non-responsive patients (SD and PD)) | ratio of PB blast cell density after treatment to initial density prior to treatment ([1]; day 3 following initial treatment with BL-8040, responsive patients, CR, prior to cytarabine) | ratio of PB blast cell density after treatment to initial density prior to treatment ([1]; day 3 following initial treatment with BL-8040, responsive patients, CRi, prior to cytarabine) | increase of PB blast-cell density versus baseline ([1]; non-responsive patients, after 2 or 3 days following first administration of BL-8040) | increase of PB blast-cell density versus baseline ([1]; responsive patients (CR, CRi or CRp), after 2 days following first administration of BL-8040) | increase of PB blast-cell density versus baseline ([1]; responsive patients (CR, CRi or CRp), after 3 days following first administration of BL-8040) | growth of human AML xenografts (human AML xenografts) | cytotoxicity toward malignant cells of hematopoietic origin including AML [2] | HIV-1 (X4-HIV-1) entry to T cells (HIV-1 (X4-HIV-1))
4F-benzoyl-Arg-Arg-Nal-Cys-Tyr-Cit-Lys-DLys-Pro-Tyr-Arg-Cit-Cys-Arg-NH2 [BL-8040] | no increase was observed | 2.1 fold | 4.0 fold | no significant increase was observed | 7.0 fold | 4.2 fold | no significant increase was observed | 2.1 fold | 2.9 fold | did not increase | 3.7 fold | 3.8 fold | significantly reduced | CXCR4-dependent preferential cytotoxicity | –
H-Arg-Arg-Nal-Cys-Tyr-Arg-Lys-DLys-Pro-Tyr-Arg-Cit-Cys-Arg-OH (H-RR[2Nal]CYRK[dK]PYR[Cit]CR-OH; disulfide 4-13) [Analog T-140] | – | – | – | – | – | – | – | – | – | – | – | – | – | – | suppress
